Where a name gives a salt, the structure may show the parent alone. Read-outs that look alike come from different tables or passages of the source.
Biological target: SARS-CoV-2 3CLpro (Severe acute respiratory syndrome coronavirus 2, UniProt P0DTD1)
Test: biochemical
Assay type: biochemical
Set-up: Replicate_1 / Replicate_2 / mean / mean (LOPAC_screen_w_protease): unit not given here
Conditions: for inhibition at 5 µM: 4 h
[1] = sheet LOPAC_screen_w_protease, primary screen of LOPAC1280 at 5 µM with protease, mean of the two replicates
[2] = sheet LOPAC_screen_w_protease, primary screen of LOPAC1280 at 5 µM with protease, replicate 1
[3] = sheet LOPAC_screen_w_protease, primary screen of LOPAC1280 at 5 µM with protease, replicate 2
[4] = LOPAC1280 primary screen with protease, 5 µM compound, replicate 1, read-out: Replicate_1 (LOPAC_screen_w_protease)
[5] = LOPAC1280 primary screen with protease, 5 µM compound, replicate 2, read-out: Replicate_2 (LOPAC_screen_w_protease)
[6] = LOPAC1280 primary screen with protease, 5 µM compound, mean of two replicates
[7] = sheet LOPAC_screen_w_protease, LOPAC1280 primary screen at 5 µM, with protease, mean of the two replicates
[8] = sheet LOPAC_screen_w_protease, LOPAC1280 primary screen at 5 µM, with protease, replicate 1
[9] = sheet LOPAC_screen_w_protease, LOPAC1280 primary screen at 5 µM, with protease, replicate 2
[10] = sheet LOPAC_screen_w_protease, LOPAC1280 primary screen with protease, 5 µM compound, mean of the two replicates
[11] = sheet LOPAC_screen_w_protease, LOPAC1280 primary screen with protease, 5 µM compound, replicate 1
[12] = sheet LOPAC_screen_w_protease, LOPAC1280 primary screen with protease, 5 µM compound, replicate 2

What does the source list for `Cn1c(=O)c2[nH]c(-c3ccc(S(=O)(=O)O)cc3)nc2n(C)c1=O` [8-(p-Sulfophenyl)theophylline]?
mean (sheet LOPAC_screen_w_protease, primary screen with protease, compound at 5 µM, mean of two replicates): 3.141; Replicate_1 (sheet LOPAC_screen_w_protease, primary screen with protease, compound at 5 µM, replicate 1): 2.844; Replicate_2 (sheet LOPAC_screen_w_protease, primary screen with protease, compound at 5 µM, replicate 2): 3.439

With `N[C@@H](C(=O)N[C@@H]1C(=O)N2C(C(=O)O)=C(Cl)CS[C@H]12)c1ccccc1` [Cefaclor] as the compound, how does the inhibition at 5 µM (read-out: Replicate_1 (LOPAC screen with protease)) read?
The inhibition at 5 µM was 13.9%.

What about the inhibition at 5 µM (read-out: Replicate_2 (LOPAC screen with protease)) of the same compound?
Its inhibition at 5 µM is 11.6%.

What about the inhibition at 5 µM (read-out: mean (LOPAC screen with protease)) of the same compound?
Its inhibition at 5 µM is 12.7%.

Which results are given for `COc1ccc(OC)c(C(O)C(C)N)c1` (stereo not drawn) [Methoxamine hydrochloride]?
inhibition at 5 µM (sheet LOPAC_screen_w_protease, primary screen of LOPAC1280 at 5 µM with protease, mean of the two replicates, read-out: mean): 3.32%; inhibition at 5 µM (sheet LOPAC_screen_w_protease, primary screen of LOPAC1280 at 5 µM with protease, replicate 1, read-out: Replicate_1): 2.74%; inhibition at 5 µM (sheet LOPAC_screen_w_protease, primary screen of LOPAC1280 at 5 µM with protease, replicate 2, read-out: Replicate_2): 3.89%

What does the source list for `CC(C)NCC(O)COc1ccc(CCOCC2CC2)cc1` (stereo not drawn) [Betaxolol hydrochloride]?
inhibition at 5 µM (read-out: Replicate_1): 0.905%; inhibition at 5 µM (read-out: Replicate_2): 3.87%; inhibition at 5 µM (read-out: mean): 2.39%

`CCc1cccc2c3c([nH]c12)C(CC)(CC(=O)O)OCC3` (stereo not drawn) [Etodolac] was tested. Which inhibition at 5 µM (sheet LOPAC_screen_w_protease, LOPAC1280 primary screen at 5 µM, with protease, mean of the two replicates, read-out: mean) did it give?
Its inhibition at 5 µM is 0.659%.

What about the inhibition at 5 µM (sheet LOPAC_screen_w_protease, LOPAC1280 primary screen at 5 µM, with protease, replicate 1, read-out: Replicate_1) of the same compound?
The inhibition at 5 µM was 1.48%.

And the inhibition at 5 µM (sheet LOPAC_screen_w_protease, LOPAC1280 primary screen at 5 µM, with protease, replicate 2, read-out: Replicate_2)?
The inhibition at 5 µM was -0.164%.

`Cl.OCc1c[nH]cn1` [4-Imidazolemethanol hydrochloride] was tested. Which mean (sheet LOPAC_screen_w_protease, LOPAC1280 at 5 µM, mean of two replicates) did it give?
Its mean is 1.065.

And the Replicate_1 (sheet LOPAC_screen_w_protease, LOPAC1280 at 5 µM, replicate 1)?
Its Replicate_1 is 2.558.

What about the Replicate_2 (sheet LOPAC_screen_w_protease, LOPAC1280 at 5 µM, replicate 2) of the same compound?
The Replicate_2 was -0.4285.

With `O=S1(=O)N(CCN2CC=C(c3c[nH]c4cc(F)ccc34)CC2)c2cccc3c2N1CCC3` [LY-367,265] as the compound, how does the mean (sheet LOPAC_screen_w_protease, primary screen with protease, mean of two replicates) read?
The mean was 2.318.

And the Replicate_1 (sheet LOPAC_screen_w_protease, primary screen with protease, replicate 1)?
Its Replicate_1 is 0.8121.

What about the Replicate_2 (sheet LOPAC_screen_w_protease, primary screen with protease, replicate 2) of the same compound?
The Replicate_2 was 3.823.

How did the mean [1] turn out when `O=C(O)CN(CCN(CC(=O)O)CC(=O)O)CCN(CC(=O)O)CC(=O)O` [Diethylenetriaminepentaacetic acid] was run?
The mean was 3.2.

And the Replicate_1 [2]?
The Replicate_1 was 5.3521.

And the Replicate_2 [3]?
The Replicate_2 was 1.048.

How did the inhibition at 5 µM (sheet LOPAC_screen_w_protease, primary screen with protease, 5 µM, mean of two replicates, read-out: mean) turn out when `CN(C)CCCN1c2ccccc2Sc2ccccc21` [Promazine hydrochloride] was run?
The inhibition at 5 µM was -0.303%.

What about the inhibition at 5 µM (sheet LOPAC_screen_w_protease, primary screen with protease, 5 µM, replicate 1, read-out: Replicate_1) of the same compound?
The inhibition at 5 µM was -0.0432%.

What about the inhibition at 5 µM (sheet LOPAC_screen_w_protease, primary screen with protease, 5 µM, replicate 2, read-out: Replicate_2) of the same compound?
Its inhibition at 5 µM is -0.563%.

How did the inhibition at 5 µM [4] turn out when `COC(=O)C1=CCCN(C)C1` [Arecoline hydrobromide] was run?
Its inhibition at 5 µM is 1.64%.

And the inhibition at 5 µM [5]?
The inhibition at 5 µM was 1.16%.

And the “mean (LOPAC_screen_w_protease)” value [6]?
Its value is 1.398.

Which results are given for `N[C@@H](Cn1oc(=O)[nH]c1=O)C(=O)O` [(+)-Quisqualic acid]?
mean [7]: 0.4364; Replicate_1 [8]: 1.4914; Replicate_2 [9]: -0.6187

For `O=C(Nc1cc(C(=O)Nc2ccc(S(=O)(=O)[O-])cc2S(=O)(=O)[O-])cc(C(=O)Nc2ccc(S(=O)(=O)[O-])cc2S(=O)(=O)[O-])c1)Nc1cc(C(=O)Nc2ccc(S(=O)(=O)[O-])cc2S(=O)(=O)[O-])cc(C(=O)Nc2ccc(S(=O)(=O)[O-])cc2S(=O)(=O)[O-])c1.[Na+].[Na+].[Na+].[Na+].[Na+].[Na+].[Na+].[Na+]` [NF449 octasodium salt], which mean [1] is on record?
Its mean is 4.044.

What about the Replicate_1 [2] of the same compound?
Its Replicate_1 is 4.589.

And the Replicate_2 [3]?
Its Replicate_2 is 3.499.

What does the source list for `O=C(O)c1cc(O)cc(C(=O)O)n1` [Chelidamic acid]?
inhibition at 5 µM (sheet LOPAC_screen_w_protease, primary screen with protease, compound at 5 µM, mean of two replicates, read-out: mean): 3.14%; inhibition at 5 µM (sheet LOPAC_screen_w_protease, primary screen with protease, compound at 5 µM, replicate 1, read-out: Replicate_1): 2.7%; inhibition at 5 µM (sheet LOPAC_screen_w_protease, primary screen with protease, compound at 5 µM, replicate 2, read-out: Replicate_2): 3.58%

How did the mean [10] turn out when `Cl.O=C(CCCN1CCC2(CC1)C(=O)N(CCc1ccc(N=C=S)cc1)CN2c1ccccc1)c1ccc(F)cc1` was run?
Its mean is 5.051.

What about the Replicate_1 [11] of the same compound?
Its Replicate_1 is 5.654.

And the Replicate_2 [12]?
The Replicate_2 was 4.448.

What does the source list for `Cl.O=c1cc(N2CCOCC2)oc2c(-c3ccccc3)cccc12` [LY-294,002 hydrochloride]?
mean [10]: 5.665; Replicate_1 [11]: 6.484; Replicate_2 [12]: 4.845

With `CCN(CC)CCOCCOC(=O)C1(c2ccccc2)CCCC1` [Carbetapentane citrate] as the compound, how does the inhibition at 5 µM [4] read?
The inhibition at 5 µM was 2.35%.

And the inhibition at 5 µM [5]?
The inhibition at 5 µM was 1.05%.

What about the “mean (LOPAC_screen_w_protease)” value [6] of the same compound?
Its value is 1.698.

With `NC(C(=O)O)C(O)C(=O)O` (racemic) [DL-threo-beta-hydroxyaspartic acid] as the compound, how does the “mean (LOPAC_screen_w_protease)” value (LOPAC1280 primary screen with protease, 5 µM compound, mean of the two replicates) read?
The value was 2.095.

What about the “Replicate_1 (LOPAC_screen_w_protease)” value (LOPAC1280 primary screen with protease, 5 µM compound, replicate 1) of the same compound?
Its value is 2.385.

What about the “Replicate_2 (LOPAC_screen_w_protease)” value (LOPAC1280 primary screen with protease, 5 µM compound, replicate 2) of the same compound?
Its value is 1.804.

For `N=C(N)c1ccccc1` [Benzamidine hydrochloride], which inhibition at 5 µM (sheet LOPAC_screen_w_protease, primary screen with protease, mean of two replicates, read-out: mean) is on record?
Its inhibition at 5 µM is 2.38%.

What about the inhibition at 5 µM (sheet LOPAC_screen_w_protease, primary screen with protease, replicate 1, read-out: Replicate_1) of the same compound?
Its inhibition at 5 µM is 1.49%.

What about the inhibition at 5 µM (sheet LOPAC_screen_w_protease, primary screen with protease, replicate 2, read-out: Replicate_2) of the same compound?
The inhibition at 5 µM was 3.28%.

With `OC[C@H]1O[C@@H](n2cnc3c(NCCc4ccccc4)ncnc32)[C@H](O)[C@@H]1O` [N6-2-Phenylethyladenosine] as the compound, how does the mean [7] read?
Its mean is 0.6761.

And the Replicate_1 [8]?
The Replicate_1 was 1.884.

And the Replicate_2 [9]?
The Replicate_2 was -0.5317.

— PMC7587356, “High-Throughput Screening for Inhibitors of the SARS-CoV-2 Protease Using a FRET-Biosensor” (Molecules, 2020)
